In experiment [1] the test system is SK-MEL-2/Luc-MDM2 cells (MDM2-Luc exon-skipping reporter). The experiment can be described thus: cell-based MDM2-Luc exon-skipping reporter assay. Particulars: for luciferase response (Luc fold) in the MDM2-Luc reporter assay: compared with less potent CLK inhibitors of the series; for MDM2/Luc: luciferase activation vs DMSO control, average of three experiments. (Reporter assays use an easily measured gene product as a stand-in for the process of interest.)

The target of a further experiment is T1, MEK1(h) (Homo sapiens, UniProt Q02750).
T1 construct: purchased Eurofins, Dundee, Scotland
The experiment can be described thus: kinase profile, radiometric assay, MEK1. The class given is biochemical. The method, then:
(§1) Enzymatic biochemical activities were evaluated in radiometric protein kinase assays (Eurofins, Dundee, Scotland). Kinases are incubated with buffer, substrate and [γ-^33P]-ATP (specific activity approx. 500 cpm/pmol, concentration as required). The reaction is initiated by the addition of the MgATP mix. After incubation for 40 minutes at room temperature, the reaction is stopped by the addition of 3% phosphoric acid solution. 10 μL of the reaction is then spotted onto a P30 filtermat and washed three times for 5 minutes in 75 mM phosphoric acid and once in methanol prior to drying and scintillation counting.
(§2) All compounds are prepared to 50× final assay concentration in 100% DMSO. Positive control wells contain all components of the reaction with 2% DMSO. Blank wells contain all components of the reaction, with a reference inhibitor replacing the compound of interest. Each kinase is assigned a standard assay concentration of ATP within 20 μM of its apparent KM. Compounds were screened at 1 μM in duplicate or tested at 10 concentrations at half log dilution starting from 10 μM in singlicate. Dose response curves were fitted with four parameter logistic curve to obtain IC50 values. The average coefficient of variation (CV) of the conducted assay is 4.4%.

Another experiment deals with T2, Abl(h) (Homo sapiens, UniProt P00519).
T2 construct: purchased Eurofins, Dundee, Scotland
The experiment can be described thus: kinase profile, radiometric assay, Abl. The class given is biochemical. How it is done: as §1, §2

The next experiment has as its target T3, JAK2(h) (Homo sapiens, UniProt O60674).
T3 construct: purchased Eurofins, Dundee, Scotland
The experiment can be described thus: kinase profile, radiometric assay, JAK2. The class given is biochemical. How it is done: as §1, §2

A further experiment deals with T4, Flt3(h) (Homo sapiens, UniProt P36888).
T4 construct: purchased Eurofins, Dundee, Scotland
T4 sequence (P36888 27-993): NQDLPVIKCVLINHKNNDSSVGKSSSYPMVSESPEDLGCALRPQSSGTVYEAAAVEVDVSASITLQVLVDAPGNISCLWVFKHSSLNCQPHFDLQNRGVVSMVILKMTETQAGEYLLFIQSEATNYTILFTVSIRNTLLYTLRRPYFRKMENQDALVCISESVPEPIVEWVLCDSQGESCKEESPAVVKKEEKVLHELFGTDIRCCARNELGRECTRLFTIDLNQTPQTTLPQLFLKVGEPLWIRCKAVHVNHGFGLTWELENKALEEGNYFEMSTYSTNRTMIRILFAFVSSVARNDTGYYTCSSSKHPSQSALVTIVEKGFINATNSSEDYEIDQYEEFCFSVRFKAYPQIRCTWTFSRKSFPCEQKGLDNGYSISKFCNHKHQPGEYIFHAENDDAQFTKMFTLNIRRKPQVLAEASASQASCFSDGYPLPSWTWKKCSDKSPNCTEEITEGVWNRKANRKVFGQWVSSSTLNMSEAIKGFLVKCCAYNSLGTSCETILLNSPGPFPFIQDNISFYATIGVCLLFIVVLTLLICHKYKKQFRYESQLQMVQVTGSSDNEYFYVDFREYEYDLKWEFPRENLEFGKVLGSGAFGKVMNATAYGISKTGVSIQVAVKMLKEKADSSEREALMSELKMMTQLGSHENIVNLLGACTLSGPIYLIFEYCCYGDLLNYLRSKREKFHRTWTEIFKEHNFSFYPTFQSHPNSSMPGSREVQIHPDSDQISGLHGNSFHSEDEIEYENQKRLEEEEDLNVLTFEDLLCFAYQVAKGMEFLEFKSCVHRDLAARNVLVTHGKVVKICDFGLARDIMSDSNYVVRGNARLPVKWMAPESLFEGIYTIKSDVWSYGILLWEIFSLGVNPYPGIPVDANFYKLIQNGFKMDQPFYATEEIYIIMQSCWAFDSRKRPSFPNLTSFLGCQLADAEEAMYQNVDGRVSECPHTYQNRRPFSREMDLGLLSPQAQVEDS
The experiment can be described thus: kinase profile, radiometric assay, Flt3. The class given is biochemical. The method, then:
as §1, §2

Another experiment addresses T5, ALK(h) (Homo sapiens, UniProt Q9UM73).
T5 construct: purchased Eurofins, Dundee, Scotland
The experiment can be described thus: kinase profile, radiometric assay, ALK. It counts as biochemical. How it is done:
as §1, §2

The next experiment addresses T6, Aurora-A(h) (Homo sapiens, UniProt O14965).
T6 construct: purchased Eurofins, Dundee, Scotland
T6 sequence (O14965 1-403): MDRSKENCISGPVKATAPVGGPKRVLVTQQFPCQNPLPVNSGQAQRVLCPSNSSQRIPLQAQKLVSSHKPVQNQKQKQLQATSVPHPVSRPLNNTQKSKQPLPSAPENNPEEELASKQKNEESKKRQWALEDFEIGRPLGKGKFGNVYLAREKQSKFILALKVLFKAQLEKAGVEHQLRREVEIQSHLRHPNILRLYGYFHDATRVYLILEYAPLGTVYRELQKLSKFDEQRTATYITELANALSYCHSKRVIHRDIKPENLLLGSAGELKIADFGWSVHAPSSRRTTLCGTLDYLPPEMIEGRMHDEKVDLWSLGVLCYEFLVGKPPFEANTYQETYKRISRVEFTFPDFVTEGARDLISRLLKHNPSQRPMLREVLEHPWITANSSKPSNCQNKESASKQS
The experiment can be described thus: kinase profile, radiometric assay, Aurora-A. The class given is biochemical. The method, then: as §1, §2

The next experiment concerns the target T7, CLK2(h) (Homo sapiens, UniProt P49760).
T7 construct: purchased Eurofins, Dundee, Scotland
The experiment can be described thus: radiometric protein kinase assay, CLK2. It counts as biochemical. Particulars: enzyme inhibition, ATP 10 μM. The method, then: as §1, §2

A word on the inhibition: it is the change of the read-out against control, counted positive when it falls. By IC50 is commonly meant the concentration that gives 50% inhibition. Higher therefore signals weaker potency.

T2 sequence (P00519 whole entry): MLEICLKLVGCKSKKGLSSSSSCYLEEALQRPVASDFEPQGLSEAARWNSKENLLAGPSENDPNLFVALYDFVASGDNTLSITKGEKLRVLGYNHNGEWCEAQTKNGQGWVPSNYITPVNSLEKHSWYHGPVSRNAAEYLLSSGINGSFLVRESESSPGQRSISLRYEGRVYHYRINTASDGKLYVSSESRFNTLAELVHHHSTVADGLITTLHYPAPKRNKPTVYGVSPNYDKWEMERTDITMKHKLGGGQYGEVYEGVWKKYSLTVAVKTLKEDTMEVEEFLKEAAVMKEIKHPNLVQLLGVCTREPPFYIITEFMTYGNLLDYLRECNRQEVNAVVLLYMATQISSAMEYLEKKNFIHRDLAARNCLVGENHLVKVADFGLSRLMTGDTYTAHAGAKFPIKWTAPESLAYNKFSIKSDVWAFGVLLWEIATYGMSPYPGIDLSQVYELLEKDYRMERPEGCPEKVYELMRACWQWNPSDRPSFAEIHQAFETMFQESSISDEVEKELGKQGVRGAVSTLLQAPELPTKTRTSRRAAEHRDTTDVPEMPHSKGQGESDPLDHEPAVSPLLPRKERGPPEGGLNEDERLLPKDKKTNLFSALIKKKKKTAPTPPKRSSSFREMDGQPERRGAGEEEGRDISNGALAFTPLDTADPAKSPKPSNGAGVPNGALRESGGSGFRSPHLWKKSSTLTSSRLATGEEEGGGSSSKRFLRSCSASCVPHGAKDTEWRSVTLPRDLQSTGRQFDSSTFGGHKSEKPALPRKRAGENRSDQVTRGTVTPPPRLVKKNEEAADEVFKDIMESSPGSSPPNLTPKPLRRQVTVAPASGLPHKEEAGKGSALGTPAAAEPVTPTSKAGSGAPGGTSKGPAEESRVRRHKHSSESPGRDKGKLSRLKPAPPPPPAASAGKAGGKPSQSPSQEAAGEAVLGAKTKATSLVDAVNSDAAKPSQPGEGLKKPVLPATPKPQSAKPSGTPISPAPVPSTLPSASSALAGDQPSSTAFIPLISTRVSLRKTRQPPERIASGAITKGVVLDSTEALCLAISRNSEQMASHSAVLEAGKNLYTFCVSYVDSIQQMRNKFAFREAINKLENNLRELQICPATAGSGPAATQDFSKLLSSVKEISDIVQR
T1 sequence (Q02750 whole entry): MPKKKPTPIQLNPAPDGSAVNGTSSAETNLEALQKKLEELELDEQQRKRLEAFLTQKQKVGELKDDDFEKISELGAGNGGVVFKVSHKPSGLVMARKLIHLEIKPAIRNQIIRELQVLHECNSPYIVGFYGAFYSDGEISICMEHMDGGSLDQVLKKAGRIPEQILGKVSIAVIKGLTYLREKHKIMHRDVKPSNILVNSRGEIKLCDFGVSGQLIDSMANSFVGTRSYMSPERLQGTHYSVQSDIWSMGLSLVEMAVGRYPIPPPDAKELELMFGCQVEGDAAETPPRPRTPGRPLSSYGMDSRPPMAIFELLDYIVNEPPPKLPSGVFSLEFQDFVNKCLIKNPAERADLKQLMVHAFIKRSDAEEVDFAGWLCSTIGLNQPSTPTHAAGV
T3 sequence (O60674 whole entry): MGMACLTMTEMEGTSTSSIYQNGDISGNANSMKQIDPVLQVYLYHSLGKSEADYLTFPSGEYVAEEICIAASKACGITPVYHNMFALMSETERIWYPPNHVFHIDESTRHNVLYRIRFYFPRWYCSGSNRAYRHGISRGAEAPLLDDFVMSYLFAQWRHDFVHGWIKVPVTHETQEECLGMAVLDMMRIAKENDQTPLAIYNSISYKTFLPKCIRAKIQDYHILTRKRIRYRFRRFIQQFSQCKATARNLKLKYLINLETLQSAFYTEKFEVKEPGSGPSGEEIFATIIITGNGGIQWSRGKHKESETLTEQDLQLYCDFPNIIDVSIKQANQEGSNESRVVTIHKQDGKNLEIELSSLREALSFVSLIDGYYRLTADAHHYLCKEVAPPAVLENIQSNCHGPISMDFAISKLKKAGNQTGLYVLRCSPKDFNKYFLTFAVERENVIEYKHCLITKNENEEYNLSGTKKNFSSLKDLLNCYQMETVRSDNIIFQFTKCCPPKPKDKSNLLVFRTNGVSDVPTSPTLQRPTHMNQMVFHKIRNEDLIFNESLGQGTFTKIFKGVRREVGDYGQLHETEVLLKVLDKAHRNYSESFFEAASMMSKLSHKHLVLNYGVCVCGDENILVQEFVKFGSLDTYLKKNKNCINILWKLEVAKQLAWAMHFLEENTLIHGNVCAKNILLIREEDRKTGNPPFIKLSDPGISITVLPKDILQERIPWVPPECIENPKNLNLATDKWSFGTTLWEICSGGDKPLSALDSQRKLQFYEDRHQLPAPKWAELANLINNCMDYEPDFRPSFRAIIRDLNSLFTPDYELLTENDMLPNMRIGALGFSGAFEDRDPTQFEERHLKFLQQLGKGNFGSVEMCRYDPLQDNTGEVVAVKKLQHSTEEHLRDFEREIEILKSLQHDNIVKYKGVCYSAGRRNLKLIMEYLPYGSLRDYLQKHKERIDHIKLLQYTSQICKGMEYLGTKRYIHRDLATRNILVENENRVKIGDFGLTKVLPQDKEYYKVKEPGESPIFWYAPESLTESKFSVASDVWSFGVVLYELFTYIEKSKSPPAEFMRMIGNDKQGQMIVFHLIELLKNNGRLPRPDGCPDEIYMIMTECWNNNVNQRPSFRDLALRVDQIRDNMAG
T7 sequence (P49760 whole entry): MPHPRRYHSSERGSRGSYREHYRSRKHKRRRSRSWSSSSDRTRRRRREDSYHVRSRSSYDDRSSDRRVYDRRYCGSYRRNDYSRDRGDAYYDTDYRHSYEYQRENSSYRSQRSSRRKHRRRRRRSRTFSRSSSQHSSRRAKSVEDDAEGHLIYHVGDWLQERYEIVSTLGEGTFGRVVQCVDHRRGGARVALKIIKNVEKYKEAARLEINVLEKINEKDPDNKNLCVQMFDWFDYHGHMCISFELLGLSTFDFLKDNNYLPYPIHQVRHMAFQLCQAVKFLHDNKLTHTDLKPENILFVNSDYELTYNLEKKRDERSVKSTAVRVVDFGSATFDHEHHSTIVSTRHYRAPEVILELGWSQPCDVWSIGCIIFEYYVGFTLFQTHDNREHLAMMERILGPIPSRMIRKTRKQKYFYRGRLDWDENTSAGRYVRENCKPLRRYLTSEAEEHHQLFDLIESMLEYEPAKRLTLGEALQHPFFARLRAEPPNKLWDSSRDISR
T5 sequence (Q9UM73 19-1620): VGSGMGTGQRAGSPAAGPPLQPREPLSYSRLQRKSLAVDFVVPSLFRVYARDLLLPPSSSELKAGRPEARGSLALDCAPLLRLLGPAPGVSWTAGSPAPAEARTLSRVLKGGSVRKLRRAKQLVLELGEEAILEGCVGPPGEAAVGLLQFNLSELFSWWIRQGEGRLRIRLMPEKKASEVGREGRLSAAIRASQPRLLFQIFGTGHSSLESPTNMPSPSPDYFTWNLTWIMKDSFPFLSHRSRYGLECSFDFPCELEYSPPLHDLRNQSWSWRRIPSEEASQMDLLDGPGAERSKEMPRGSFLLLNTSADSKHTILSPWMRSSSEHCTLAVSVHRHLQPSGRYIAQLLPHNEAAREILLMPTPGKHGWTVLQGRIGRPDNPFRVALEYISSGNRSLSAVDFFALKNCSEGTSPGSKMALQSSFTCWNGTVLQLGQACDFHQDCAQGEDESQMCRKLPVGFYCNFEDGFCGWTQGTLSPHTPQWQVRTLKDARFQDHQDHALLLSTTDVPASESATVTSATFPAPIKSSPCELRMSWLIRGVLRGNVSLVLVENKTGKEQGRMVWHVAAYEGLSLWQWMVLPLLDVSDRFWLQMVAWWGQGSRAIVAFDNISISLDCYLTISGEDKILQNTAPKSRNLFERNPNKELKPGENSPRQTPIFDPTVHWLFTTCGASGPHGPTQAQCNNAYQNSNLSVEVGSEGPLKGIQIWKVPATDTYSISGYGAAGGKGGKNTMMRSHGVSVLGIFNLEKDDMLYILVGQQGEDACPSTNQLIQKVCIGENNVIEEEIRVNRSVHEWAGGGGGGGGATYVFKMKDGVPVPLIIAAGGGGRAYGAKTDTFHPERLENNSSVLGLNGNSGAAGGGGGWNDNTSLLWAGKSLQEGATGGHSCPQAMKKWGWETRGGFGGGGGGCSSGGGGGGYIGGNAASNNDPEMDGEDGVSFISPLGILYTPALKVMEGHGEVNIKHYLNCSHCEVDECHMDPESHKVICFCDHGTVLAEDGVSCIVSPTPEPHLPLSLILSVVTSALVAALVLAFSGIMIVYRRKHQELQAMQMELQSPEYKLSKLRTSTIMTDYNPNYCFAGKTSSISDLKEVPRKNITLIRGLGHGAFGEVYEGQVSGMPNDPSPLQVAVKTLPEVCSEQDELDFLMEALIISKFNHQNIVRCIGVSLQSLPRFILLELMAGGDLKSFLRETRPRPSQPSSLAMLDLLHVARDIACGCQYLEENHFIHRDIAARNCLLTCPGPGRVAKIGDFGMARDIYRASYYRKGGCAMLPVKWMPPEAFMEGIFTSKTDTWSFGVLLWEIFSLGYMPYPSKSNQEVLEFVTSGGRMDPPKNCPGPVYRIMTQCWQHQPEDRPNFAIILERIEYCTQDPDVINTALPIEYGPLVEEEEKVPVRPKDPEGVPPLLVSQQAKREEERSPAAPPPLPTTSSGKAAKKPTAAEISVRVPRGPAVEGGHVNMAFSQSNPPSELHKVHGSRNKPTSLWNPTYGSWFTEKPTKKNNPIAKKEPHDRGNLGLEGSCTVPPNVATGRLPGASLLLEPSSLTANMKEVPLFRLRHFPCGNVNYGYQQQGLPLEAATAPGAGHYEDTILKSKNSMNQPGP

Take `CC(C)n1cnc2c(Nc3cc(N)cc(Cl)c3)nc(NC3CCCCC3N)nc21` (racemic) [Compound 14, Racemic N^6-Cis-(3-Amino-5-Chlorophenyl)-N^2-(2-Aminocyclohexyl)-9-Isopropyl-9H-Purine-2,6-Diamine]: in experiment [1], the “luciferase response (Luc fold) in the MDM2-Luc reporter assay” value was “stronger luciferase response”. In addition, the MDM2/Luc result in experiment [1] is “Active”. For the same molecule, the MDM2-Luc activity entry in experiment [1] (result in words, no concentration stated) was “strong MDM2-Luc activity”. Besides, the inhibition at 1 µM was 6% at MEK1(h); 8% against Abl(h); 8% against JAK2(h); 93% at Flt3(h); 10% on ALK(h); 13% against Aurora-A(h). Moreover, the IC50 against CLK2(h) was 16 nM.
`CC(C)n1cnc2c(Nc3cccc(Cl)c3)nc(N[C@H]3CCCC[C@@H]3N)nc21` [Compound 8, N^2-((1S,2S)-2-Aminocyclohexyl)-V-(3-Chlorophenyl)-9-Isopropyl-9H-Purine-2,6-Diamine]: the MDM2/Luc entry in experiment [1] is on record as “Active”. Besides, the inhibition at 1 µM against MEK1(h) is 10%; against Abl(h), -2%; against JAK2(h), -6%; on Flt3(h), 19%; against ALK(h) it was 7%; on Aurora-A(h), 4%. Besides, half-maximal inhibition against CLK2(h) (IC50) required 16 nM.
As to `CC(C)n1cnc2c(Nc3cccc(Cl)c3)nc(N[C@@H]3CCCC[C@@H]3N)nc21` [Compound 9, N^2-((1R,2S)-2-Aminocyclohexyl)-N^6-(3-Chlorophenyl)-9-Isopropyl-9H-Purine-2,6-Diamine], the “luciferase response (Luc fold) in the MDM2-Luc reporter assay” value in experiment [1] is recorded as “stronger luciferase response”. Moreover, the MDM2/Luc result in experiment [1] is given as “Active”. Besides, the inhibition at 1 µM on MEK1(h) is 8%; on Abl(h), 2%; at JAK2(h), 2%; against Flt3(h), 90%; against ALK(h) it was -2%; on Aurora-A(h) it was -5%. The midpoint of inhibition against CLK2(h), the IC50, lay at 11 nM.

Values taken from patent publication US10722515B2, “Dual CLK/CDK1 inhibitors for cancer treatment” (SRI INTERNATIONAL, priority 2016, dated 2020).
